{
  "source": "patent US4663342A",
  "about": "“Pharmaceutical composition and method for immunopotentiation” (Zaidan Hojin Biseibutsu Kagaku Kenkyu Kai, priority 1984, dated 1987)",
  "key": {"mice": {"test_system": "mice", "assay": "Acute toxicity test in mice by intravenous injection", "type": "in vivo", "conditions": "i.v. dosage of 400 mg/kg", "experimental": "Acute toxicity tests in mice by intravenous injection have shown that no deaths are caused by the actinonin compound of the formula (I) at an i.v. dosage of 400 mg/kg. […] The actinonin compound of the formula (I) is therefore useful as an immunopotentiator and anti-tumor immunomodulator or as adjuvants to various chemotherapeutic agents for use in the treatment of carcinomas."}, "gram-positive bacteria": {"test_system": "gram-positive bacteria", "conditions": "against gram-positive bacteria; cited from earlier work"}, "[1]": {"test_system": "CDF1 mice immunized with sheep red blood cells (SRBC)", "assay": "Delayed Type Hypersensitivity (D.T.H.) footpad test in normal mice immunized with SRBC", "type": "in vivo", "conditions": "for Increase in footpad thickness: 24 h after SRBC challenge; for T/C (%): footpad thickness increase vs control = 100%", "experimental": "Effect of actinonin on the cellular immunity was investigated by measuring the Delayed Type Hypersensitivity (D.T.H.) (see […] and T. E. Miller: \"J. Exp. Med.\", 139, 1529-1539 (1974)) using mice immunized with sheep red blood cells (SRBC) as the antigen inoculated to the footpad of the mice. Thus, 10^8 SRBC suspended in 0.05 ml of physiological saline was inoculated by subcutaneous injection into a subdermal site of a hind footpad of CDF1 mice (6 mice per group, female, 8-weeks old) to make immunization. At the time of this immunization, an aqueous solution containing 5 mg/kg, 0.5 mg/kg, 0.05 mg/kg or 0.005 mg/kg of actinonin was administered intraperitoneally at a single dose to each test mice. 4 Days after the immunization, 10^8 SRBC in 0.05 ml of physiological saline were injected subcutaneously into the other hind footpad of the test mice for secondary challenge of the D.T.H. response. 24 Hours after the challenge, the thickness (in mm) of the hind footpad having received the challenge of SRBC was measured with vernier caliper. At the same time, the thickness of footpad of control mice which had received the injection of the SRBC and physiological saline without the administration of the test compound was also measured in each mouse. The increase in footpad thickness of the animals treated was calculated by the following equation: [formula] The effect of actinonin on the DTH response was evaluated by the following equation: [formula] […] In this way, the cell-mediated immunity potentiating effect of the test compound was evaluated. For comparison purpose, bestatin was also tested in the same manner as above."}, "[2]": {"test_system": "mice bearing Ascites Sarcoma 180 tumor", "assay": "D.T.H. response to picryl chloride (ear thickness) in tumor-bearing mice", "type": "in vivo", "conditions": "for Increase in ear thickness: 24 h after picryl chloride challenge; for T/C (%): ear thickness increase vs control = 100%", "experimental": "In mice bearing Ascites Sarcoma 180 tumor, the effect of actinonin on the D.T.H. response to picryl chloride was investigated. 10^6 Cells of Ascites Sarcoma 180 were transplanted intraperitoneally into CDF1 mice (12-week-old, female, 5 mice per group). The day of this transplantation was designated as Day 0. […] Then, 5.0 mg/kg, 0.5 mg/kg, 0.05 mg/kg or 0.005 mg/kg of actinonin dissolved in physiological saline was orally administered once daily from Day 1 to Day 8, except that on Days 5 and 6 the test compound was not administered. During this period of Day 1 to Day 8, the control group of mice (untreated) was given physiological saline only. On day 8, the right ear was challenged with 20 μl of a 1% olive oil solution of picryl chloride which was absorbed to an absorbent cotton mass cut to a size of 10 mm×5 mm×1 mm. Twenty-four hours after the challenge, the thickness of the ear was measured with a dial gauge. On the other hand, the control animals (untreated) were challenged on Day 8 with picryl chloride and physiological saline in accordance with the same procedure, but without having been treated with the test compound, and the thickness of the ear of the control animals was measured in the same way. The increase in the thickness of ear for the control group of mice was evaluated to be 100%. The increase (T) in the thickness of the ear for the group of mice treated with the test compound was compared with that (C) for the control group of mice to evaluate the rate (T/C, %) of the increase in the thickness of the ear, whereby the cellular immunity-potentiating activity of the compound under test was estimated."}, "[3]": {"conditions": "0.5 mg/kg i.p. single dose at immunization"}, "[4]": {"conditions": "0.5 mg/kg orally once daily Day 1 to Day 8 (not Days 5, 6)"}},
  "data": [
    {"smiles": "CCCCC[C@H](CC(=O)NO)C(=O)N[C@H](C(=O)N1CCC[C@H]1CO)C(C)C", "note": "[Actinonin]", "values": [
      {"measurement": "Deaths in acute toxicity test", "setting": "mice", "value": "no deaths"},
      {"measurement": "Antibacterial activity", "setting": "gram-positive bacteria", "value": "exhibits antibacterial activity"},
      {"measurement": "Increase in footpad thickness", "setting": "[1]; 0.005 mg/kg i.p. single dose at immunization", "value": "9.2 ± 1.15", "unit": "× 0.1 mm"},
      {"measurement": "T/C (%)", "setting": "[1]; 0.005 mg/kg i.p. single dose", "value": 107, "unit": "%"},
      {"measurement": "Increase in footpad thickness", "setting": "[1]; 0.05 mg/kg i.p. single dose at immunization", "value": "10.4 ± 1.40", "unit": "× 0.1 mm"},
      {"measurement": "T/C (%)", "setting": "[1]; 0.05 mg/kg i.p. single dose", "value": 121, "unit": "%"},
      {"measurement": "Increase in footpad thickness", "setting": "[1]; [3]", "value": "11.4 ± 1.80", "unit": "× 0.1 mm"},
      {"measurement": "T/C (%)", "setting": "[1]; 0.5 mg/kg i.p. single dose", "value": 133, "unit": "%"},
      {"measurement": "Increase in footpad thickness", "setting": "[1]; 5 mg/kg i.p. single dose at immunization", "value": "11.9 ± 1.44", "unit": "× 0.1 mm"},
      {"measurement": "T/C (%)", "setting": "[1]; 5 mg/kg i.p. single dose", "value": 138, "unit": "%"},
      {"measurement": "Increase in ear thickness", "setting": "[2]; 0.005 mg/kg orally once daily Day 1 to Day 8 (not Days 5, 6)", "value": "4.70 ± 0.67 × 10^-3 cm"},
      {"measurement": "T/C (%)", "setting": "[2]; 0.005 mg/kg orally once daily", "value": 96.9, "unit": "%"},
      {"measurement": "Increase in ear thickness", "setting": "[2]; 0.05 mg/kg orally once daily Day 1 to Day 8 (not Days 5, 6)", "value": "6.80 ± 0.84 × 10^-3 cm"},
      {"measurement": "T/C (%)", "setting": "[2]; 0.05 mg/kg orally once daily", "value": 140.2, "unit": "%"},
      {"measurement": "Increase in ear thickness", "setting": "[2]; [4]", "value": "7.08 ± 1.66 × 10^-3 cm"},
      {"measurement": "T/C (%)", "setting": "[2]; 0.5 mg/kg orally once daily", "value": 146.0, "unit": "%"},
      {"measurement": "Increase in ear thickness", "setting": "[2]; 5 mg/kg orally once daily Day 1 to Day 8 (not Days 5, 6)", "value": "4.60 ± 1.19 × 10^-3 cm"},
      {"measurement": "T/C (%)", "setting": "[2]; 5 mg/kg orally once daily", "value": 94.8, "unit": "%"}
    ]},
    {"smiles": "CC(C)C[C@H](NC(=O)[C@@H](O)[C@H](N)Cc1ccccc1)C(=O)O", "note": "[Bestatin, reference compound]", "values": [
      {"measurement": "Increase in footpad thickness", "setting": "[1]; [3]", "value": "12.8 ± 1.47", "unit": "× 0.1 mm"},
      {"measurement": "T/C (%)", "setting": "[1]; 0.5 mg/kg i.p. single dose", "value": 149, "unit": "%"},
      {"measurement": "Increase in ear thickness", "setting": "[2]; [4]", "value": "6.75 ± 1.51 × 10^-3 cm"},
      {"measurement": "T/C (%)", "setting": "[2]; 0.5 mg/kg orally once daily", "value": 139.2, "unit": "%"}
    ]}
  ]
}
